The values below come from patent US8992977B2, “Multi-day delivery of biologically active substances” (Samos Pharmaceuticals, LLC, priority 2007, dated 2015).

Data set [1] in a line: Hydrolysis of ethinyl estradiol (EE) from conjugate 1. Format: physicochemical. The settings on record: for Ethinyl Estradiol Released (%): 2:1 ethanol/0.05 M phosphate buffer pH 7.4, 37° C. The protocol:
Estradiol conjugate 1 (23.0 mg, 0.027 mmol) was dissolved in 48 mL of a 2:1 ethanol/0.05 M aqueous phosphate buffer (pH 7.4) mixture, and the solution was shaken in a 37° C. incubator for 6 days. Estradiol release was determined by integration of ^1H NMR signals obtained from three 8.5 mL aliquots, which were collected at 2-, 3-, and 6-day intervals.

Data set [2] is described as follows: Calculation of pharmacokinetic profile of orally delivered 3 1/2 day or 7 day pill. The settings on record: k 0.42. An excerpt:
Since the release of EE is from a non-constant activity source, i.e., the concentration of the conjugate is continuously decreasing, the release of EE from the conjugate will obey a first order release and thus be proportional to the concentration of conjugate at any time t. These equations have been solved and the final equation describing the release of the EE is given by the equation Mt/M0=1−1/exp(kt), where Mt is the amount of EE released from the conjugate, M0 is the total amount of EE, Mt/M0 is the percent EE released from the conjugate, k is a proportionality constant and t is the time. The constant k was calculated from the data shown in example 17 to be 0.42. […] The pharmacokinetic profiles obtained using pills containing 150 (7 day pill) and 110 (3½ day pill) microgram equivalents of EE are shown in FIG. 1A and FIG. 1B.
As was shown in Example 18, the release from the EE conjugate is governed by the equation Mt/M0=1−1/exp(kt). The value of k was 0.42 as determined from the data of example 17. As discussed in the detailed description of illustrative embodiments, the release can be controlled by many different factors. To obtain half the release rate of EE as compared with that of conjugate of example 17, a value of k=0.22 was used. Using k=0.22 and the pharmacokinetic parameters shown in Example 18, the graphs shown in FIG. 2A and FIG. 2B were obtained. […]

For the compound `C#C[C@]1(O)CC[C@H]2[C@@H]3CCc4cc(OC(=O)CCC(=O)OC(c5cc(C(F)(F)F)nc6c(C(F)(F)F)cccc56)C5CCCCN5C(=O)OC(C)(C)C)ccc4[C@H]3CC[C@@]21C` (stereo partly shown) [conjugate 1], in data set [1] (2:1 ethanol/phosphate buffer pH 7.4, 37° C.), the “period over which ethinyl estradiol is released” value is “over a several day period”. The “Ethinyl Estradiol Released (%)” value worked out at 57% in data set [1] (Day 2), 67% in data set [1] (Day 3) and 100% in data set [1] (Day 6). Moreover, in data set [1] (calculated from the data of example 17), the “proportionality constant k of first order release Mt/M0=1−1/exp(kt)” value is listed as 0.42. Also, in data set [2] (1 pill every 7 days, 150 microgram equivalents of EE), the “peak to valley ratio” value is recorded as 5.1. In addition, the “peak to valley ratio (Css.max to Css.min)” value in data set [2] (pill once every 3½ days, 110 microgram equivalents of EE) is “less than two”.
